From patent US11279703B2, “Fused pyrimidine compounds as BRD4 and JAK2 dual inhibitors and methods for use thereof” (APTOSE BIOSCIENCES INC., priority 2016, dated 2022)

How the values were obtained:
BRD4-BD1 = BRD4-BD1 (Homo sapiens (Human), UniProt O60885); assay: AlphaLisa bromodomain binding assay, BRD4-BD1; settings: Table 6; read-out: BRD4(1) IC50
BRD4-BD2 = BRD4-BD2 (Homo sapiens (Human), UniProt O60885); assay: AlphaLisa bromodomain binding assay, BRD4-BD2; settings: Table 6; read-out: BRD4(2) IC50
Description: (§1) An AlphaLisa assay was used to observe bromodomain binding and measure IC50s for the compounds disclosed herein. An AlphaLisa assay is a bead-based assay used to detect interactions between bromodomains and polyacetylated histone peptides. Donor and acceptor beads bound to target and ligand are brought into proximity by this protein-protein interaction.
(§2) Equipment Required • 1. […] Plate centrifuge • 3. Plate shaker • 4. […] Single channel and multi-channel pipettes • 6. Microplate reader (Pherastar)
(§3) Stock and Final Assay Concentrations (FAC) • 1. All reference and test compounds are made at a concentration of 10 mM in DMSO. Compounds are serially diluted in DMSO and a FAC starting from 10 μM to 10 point 3 fold serial dilutions is arrived. FAC of DMSO is 1%. • 2. Enzyme stock and FAC
(§4) Biotinylated substrate (Acetylated histone H4, biotinylated substrate—cat no. AS64989-025, Anaspec) stock and FAC
(§5) • 4. Acceptor and donor beads stock and FAC
(§6) Buffers • For the enzyme and substrate dilution following buffer is used (for 50 ml) • HEPES: 50 mM 2.5 ml • NaCl: 25 mM 1.25 ml • DTT: 10 mM 0.05 ml • BSA: 0.1% 0.05 g • MilliQ water: 45.7 ml • For dilution of acceptor and donor beads AlphaLISA 5× epigenetics Buffer Perkin Elmer (Cat: AL008C) is used at 1× concentration.
(§7) Procedure • 1. […] Tap the plate gently • 3. […] Cover with plate sealer • 5. […] Incubate the plate at room temperature for 10 minutes • 7. Add 10 μl of the substrate • 8. Cover with plate sealer • 9. […] Cover with plate sealer • 14. […] Cover with plate sealer • 18.
(§8) The percent inhibition is calculated in the excel analysis template and the IC50 values are subsequently determined using a sigmoidal dose-response curve (variable slope) using GraphPad Prism® 5 software.

BRD2-BD1 = BRD2-BD1 (Homo sapiens (Human), UniProt P25440); assay: AlphaLisa bromodomain binding assay, BRD2-BD1; settings: Table 6; read-out: BRD2(1) IC50
Chain of BRD2-BD1 (P25440 74-180): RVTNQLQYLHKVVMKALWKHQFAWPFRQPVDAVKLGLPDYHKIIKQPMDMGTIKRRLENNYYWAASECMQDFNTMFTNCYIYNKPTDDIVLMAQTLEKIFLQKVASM
Description: as §1, §2, §3, §4, §5, §6, §7, §8

BRD3-BD1 = BRD3-BD1 (Homo sapiens (Human), UniProt Q15059); assay: AlphaLisa bromodomain binding assay, BRD3-BD1; settings: Table 6; read-out: BRD3(1) IC50
Chain of BRD3-BD1 (Q15059 34-140): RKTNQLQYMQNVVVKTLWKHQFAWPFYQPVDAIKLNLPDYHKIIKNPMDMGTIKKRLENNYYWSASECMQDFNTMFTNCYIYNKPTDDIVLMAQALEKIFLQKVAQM
Description: as §1, §2, §3, §4, §5, §6, §7, §8

BRDT-BD1 = BRDT-BD1 (Homo sapiens (Human), UniProt Q58F21); assay: AlphaLisa bromodomain binding assay, BRDT-BD1; settings: Table 6; read-out: BRDT(1) IC50
Description: as §1, §2, §3, §4, §5, §6, §7, §8

JAK2 = JAK2 (Homo sapiens (Human), UniProt O60674); assay: HTRF kinase assay, JAK2; type: biochemical; settings: Table 6
Chain of JAK2 (O60674 whole entry): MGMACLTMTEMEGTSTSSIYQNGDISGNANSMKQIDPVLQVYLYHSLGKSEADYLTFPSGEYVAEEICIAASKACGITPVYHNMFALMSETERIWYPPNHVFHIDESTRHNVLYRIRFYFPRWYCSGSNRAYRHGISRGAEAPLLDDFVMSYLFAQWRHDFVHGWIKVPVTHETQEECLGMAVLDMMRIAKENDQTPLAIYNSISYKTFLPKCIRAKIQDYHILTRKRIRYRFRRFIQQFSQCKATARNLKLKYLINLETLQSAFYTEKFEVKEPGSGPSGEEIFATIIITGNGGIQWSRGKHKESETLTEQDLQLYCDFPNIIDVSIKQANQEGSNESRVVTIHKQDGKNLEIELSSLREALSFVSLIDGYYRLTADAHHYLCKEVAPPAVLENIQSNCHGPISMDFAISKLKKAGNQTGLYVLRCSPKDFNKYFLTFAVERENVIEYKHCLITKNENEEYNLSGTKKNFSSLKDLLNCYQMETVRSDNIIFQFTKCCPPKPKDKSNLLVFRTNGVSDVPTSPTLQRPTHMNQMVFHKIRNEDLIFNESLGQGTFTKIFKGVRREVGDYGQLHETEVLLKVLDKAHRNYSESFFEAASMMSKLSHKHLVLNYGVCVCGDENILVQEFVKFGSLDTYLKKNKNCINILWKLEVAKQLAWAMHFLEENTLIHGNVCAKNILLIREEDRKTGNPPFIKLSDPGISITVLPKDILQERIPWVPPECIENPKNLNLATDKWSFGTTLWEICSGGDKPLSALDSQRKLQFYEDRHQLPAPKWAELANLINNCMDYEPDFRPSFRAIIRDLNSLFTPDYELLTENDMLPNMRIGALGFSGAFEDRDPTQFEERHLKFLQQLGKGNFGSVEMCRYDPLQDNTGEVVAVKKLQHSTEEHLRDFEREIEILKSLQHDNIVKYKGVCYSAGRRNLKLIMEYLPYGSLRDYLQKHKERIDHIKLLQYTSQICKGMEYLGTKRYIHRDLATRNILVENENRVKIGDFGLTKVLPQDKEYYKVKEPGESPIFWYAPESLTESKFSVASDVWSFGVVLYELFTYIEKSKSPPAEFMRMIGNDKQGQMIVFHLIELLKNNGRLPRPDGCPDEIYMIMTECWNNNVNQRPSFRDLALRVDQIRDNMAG

JAK1 = JAK1 (Homo sapiens (Human), UniProt P23458); assay: HTRF kinase assay, JAK1; type: biochemical; settings: Table 6
Chain of JAK1 (P23458 whole entry): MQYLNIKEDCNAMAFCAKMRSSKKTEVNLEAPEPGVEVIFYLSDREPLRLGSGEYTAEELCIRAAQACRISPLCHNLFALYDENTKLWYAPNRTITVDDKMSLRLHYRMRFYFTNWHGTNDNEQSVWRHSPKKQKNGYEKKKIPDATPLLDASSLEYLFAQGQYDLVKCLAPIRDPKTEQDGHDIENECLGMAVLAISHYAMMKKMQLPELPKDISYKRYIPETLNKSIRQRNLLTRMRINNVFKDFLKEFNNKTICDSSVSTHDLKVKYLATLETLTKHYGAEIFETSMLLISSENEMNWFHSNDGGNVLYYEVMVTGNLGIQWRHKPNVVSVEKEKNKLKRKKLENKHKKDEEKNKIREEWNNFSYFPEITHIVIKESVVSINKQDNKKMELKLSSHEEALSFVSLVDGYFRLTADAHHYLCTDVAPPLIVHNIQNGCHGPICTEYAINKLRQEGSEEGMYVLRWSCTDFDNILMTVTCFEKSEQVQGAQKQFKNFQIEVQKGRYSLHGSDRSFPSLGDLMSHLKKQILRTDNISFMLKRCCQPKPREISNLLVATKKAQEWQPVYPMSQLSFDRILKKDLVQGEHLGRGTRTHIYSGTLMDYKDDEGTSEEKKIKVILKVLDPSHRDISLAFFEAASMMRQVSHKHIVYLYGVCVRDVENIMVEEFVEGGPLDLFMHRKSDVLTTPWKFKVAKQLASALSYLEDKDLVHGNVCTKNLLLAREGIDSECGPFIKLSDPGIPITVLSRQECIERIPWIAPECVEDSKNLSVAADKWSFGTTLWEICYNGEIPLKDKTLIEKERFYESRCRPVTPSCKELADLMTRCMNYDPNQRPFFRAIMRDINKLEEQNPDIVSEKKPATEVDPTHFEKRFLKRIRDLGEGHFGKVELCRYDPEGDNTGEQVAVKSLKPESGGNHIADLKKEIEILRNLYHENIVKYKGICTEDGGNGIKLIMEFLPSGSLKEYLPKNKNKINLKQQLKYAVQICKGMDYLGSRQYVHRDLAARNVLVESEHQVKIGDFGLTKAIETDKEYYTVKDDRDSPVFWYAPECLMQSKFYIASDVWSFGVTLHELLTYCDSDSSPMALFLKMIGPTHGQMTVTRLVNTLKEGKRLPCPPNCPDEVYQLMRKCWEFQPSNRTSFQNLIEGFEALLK
Description: (§9) A kinase assay with HTRF was used to observe JAK activity and calculate the IC50s of compounds disclosed herein. HTRF is an enzymatic assay used to determine the amount of phosphorylated peptide. FRET (Fluorescence Resonance Energy Transfer) is based on the transfer of energy between two fluorophores—a donor and an acceptor—when in close proximity. Molecular interactions between biomolecules can be assessed by coupling each partner with a fluorescent label and by detecting the level of energy transfer. The amount of phopshorylated peptide can be detected using a combination of a Eu 3+Cryptate labeled anti-phospho residue antibody, SA-XL665 and a biotinylated substrate. The signal is proportional to the concentration of phospho-residues.
(§10) Equipment Required • 1. […] Plate centrifuge • 3. Plate shaker • 4. […] Single channel and multi-channel pipettes • 6. Microplate reader (Pherastar)]
as §3, with “arrived. For Ruxolitinib the starting FAC is 1 μM.” for “arrived.”
(§11) • JAK-1: Invtirogen Cat: PR8767C • JAK-2: Invtirogen Cat: PR7820B • JAK-3: Invtirogen Cat: PR7507B • 3. Substrate (synthetic peptide-Biotinylated-N-terminal tag-[…] from Biopeptide) stock and FAC
(§12) • Adenosine 5′-triphosphate disodium salt hydrate: Sigma Cat: A26209 • 5. […] Buffers • Base buffer (for 50 ml)
(§13) • HTRF buffer: • 50 mM Tris-HCl, pH—7.5 • 100 mM NaCl • 0.1% BSA • 0.05% Tween20 • 0.5 mM EDTA
(§14) To a 384 well black-plate: • 1. Add 17 μL of the buffer to each well of the 384-well black plate • 2. […] Add 5 μl of the enzyme to each well of the plate • 4. Add 10 μl of the substrate and ATP mix to all the wells • 5. Cover with plate sealer • 6. […] Incubate at room temperature for 1 hour on shaker • 8. […] Add 37.5 μL of the HTRF mix to these wells. • 9. Incubate the plate at room temperature on shaker for 45 minutes. • 10.
as §8

JAK3 = JAK3 (Homo sapiens (Human), UniProt P52333); assay: HTRF kinase assay, JAK3; type: biochemical; settings: Table 6
Chain of JAK3 (P52333 whole entry): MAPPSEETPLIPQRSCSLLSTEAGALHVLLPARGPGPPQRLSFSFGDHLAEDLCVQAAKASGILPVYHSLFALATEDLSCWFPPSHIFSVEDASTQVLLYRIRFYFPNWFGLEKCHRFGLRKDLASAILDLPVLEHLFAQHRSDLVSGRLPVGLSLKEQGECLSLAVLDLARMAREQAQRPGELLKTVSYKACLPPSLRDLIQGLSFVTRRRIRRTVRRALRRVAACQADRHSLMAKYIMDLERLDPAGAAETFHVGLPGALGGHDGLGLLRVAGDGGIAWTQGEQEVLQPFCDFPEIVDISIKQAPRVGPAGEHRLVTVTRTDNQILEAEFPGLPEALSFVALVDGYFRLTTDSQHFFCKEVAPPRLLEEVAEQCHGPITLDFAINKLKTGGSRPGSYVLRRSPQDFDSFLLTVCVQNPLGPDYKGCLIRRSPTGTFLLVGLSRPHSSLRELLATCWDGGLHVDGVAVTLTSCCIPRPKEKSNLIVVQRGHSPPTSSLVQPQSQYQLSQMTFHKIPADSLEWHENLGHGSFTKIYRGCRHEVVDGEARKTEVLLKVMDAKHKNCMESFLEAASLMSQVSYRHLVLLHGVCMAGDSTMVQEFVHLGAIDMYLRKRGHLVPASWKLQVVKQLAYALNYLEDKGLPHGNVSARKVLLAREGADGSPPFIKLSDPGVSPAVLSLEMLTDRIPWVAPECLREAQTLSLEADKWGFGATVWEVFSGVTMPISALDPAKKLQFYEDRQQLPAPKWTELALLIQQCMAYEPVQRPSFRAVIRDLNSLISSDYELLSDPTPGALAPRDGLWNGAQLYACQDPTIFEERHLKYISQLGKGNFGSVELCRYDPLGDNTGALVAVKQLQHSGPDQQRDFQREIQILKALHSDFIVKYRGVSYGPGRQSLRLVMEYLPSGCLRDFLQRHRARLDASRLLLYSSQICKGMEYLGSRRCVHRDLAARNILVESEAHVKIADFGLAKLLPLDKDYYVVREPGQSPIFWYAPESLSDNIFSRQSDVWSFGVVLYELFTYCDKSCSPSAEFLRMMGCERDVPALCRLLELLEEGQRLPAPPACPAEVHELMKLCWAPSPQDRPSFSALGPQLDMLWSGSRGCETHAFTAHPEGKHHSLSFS
Description: as §9, §10
as §3, with “arrived. For Ruxolitinib the starting FAC is 1 μM.” for “arrived.”
as §11, §12, §13, §14, §8

| Compound | IC50 (BRD4-BD1) [nM] | IC50 (BRD4-BD2) [nM] | IC50 (BRD2-BD1) [nM] | IC50 (BRD3-BD1) [nM] | IC50 (BRDT-BD1) [nM] | IC50 (JAK2) [nM] | IC50 (JAK1) [nM] | IC50 (JAK3) [nM] |
| --- | --- | --- | --- | --- | --- | --- | --- | --- |
| CN1CCN(c2ccc(Nc3ncc4ccn(-c5cccc(NS(=O)(=O)C(C)(C)C)c5)c4n3)cc2C#N)CC1 | 378 | 491 | 1150 | 248 | 1000 | 18.9 | 1100 | 338 |
| CC(C)(C)S(=O)(=O)Nc1cccc(-n2ccc3cnc(Nc4ccc(C(=O)N5CCNCC5)c(F)c4)nc32)c1 [drawing 462] | 125 | 54 | 473 | 158 | 268 | 52 | 992 | 403 |
| Cc1cnc(Nc2ccc(N3CCN(C)CC3)cc2)nc1Nc1cccc(NS(=O)(=O)C(C)(C)C)c1 [drawing 271] | 220 | 73 | 448 | 366 | 230 | 7 |  |  |
| CN1CCN(c2ccc(Nc3ncc4ccn(-c5cccc(NS(=O)(=O)C(C)(C)C)c5)c4n3)cc2F)CC1 | 434 | 487 | 2860 | 652 | 1110 | 18 | 424 | 125 |
| CC(C)(C)S(=O)(=O)Nc1cccc(-n2ccc3cnc(Nc4ccc(C5CCNCC5)cc4)nc32)c1 | 676 | 325 | 1400 | 570 | 322 |  | 473 | 100 |
| CN(C)C1CCN(c2ccc(Nc3ncc4scc(-c5ccc(F)c(NS(=O)(=O)C6(C)CC6)c5)c4n3)cc2F)CC1 | 233 | 203 | 605 | 196 | 329 | 11 | 734 | 60 |
| CN1CCN(c2ccc(Nc3ncc4ccn(-c5cccc(NS(=O)(=O)C6CC6)c5)c4n3)cc2)CC1 [drawing 278] | 355 | 729 | 1900 | 825 | 2500 | 2.5 | 244 | 69 |
| CNCCNC(=O)Cc1ccc(Nc2ncc3ccn(-c4cccc(NS(=O)(=O)C(C)(C)C)c4)c3n2)cc1 | 205 | 67 | 576 | 117 | 268 | 50 | 178 | 253 |
| CC(C)(C)S(=O)(=O)Nc1cc(-n2ccc3cnc(Nc4ccc(N5CCNCC5)c(F)c4)nc32)ccc1F [drawing 428] | 60 | 64 | 216 | 59 | 118 | 33 | 2100 | 272 |
| CC(C)(C)S(=O)(=O)Nc1cccc(-n2ccc3cnc(Nc4ccc(N5CCNCC5)cc4)nc32)c1 [drawing 283] | 152 | 254 | 1580 | 500 | 632 | 12 | 418 | 67 |
| Cc1cnc(Nc2ccc(N3CCN(C)CC3)cc2)nc1Nc1cccc(NS(=O)(=O)C(C)(C)C)c1 [drawing 245] | 118 | 73 | 448 | 366 | 230 | 4 |  |  |
| CC(C)(C)S(=O)(=O)Nc1cccc(-n2ccc3cnc(Nc4ccc(C(=O)NC5CCNCC5)c(F)c4)nc32)c1 | 398 | 99 | 467 | 78 | 312 |  | 206 | 242 |
| CN1CCN(c2ccc(Nc3ncc4ccn(-c5cccc(NS(=O)(=O)C6CC6)c5)c4n3)cc2)CC1 [drawing 297] | 1460 | 1350 | 6210 | 1740 | 2630 | 4.3 |  | 31 |
| CN(C)C1CCN(c2ccc(Nc3ncc4ccn(-c5ccc(F)c(NS(=O)(=O)C(C)(C)C)c5)c4n3)cc2F)CC1 [drawing 366] | 63 | 88 | 231 | 49 | 140 | 27 | 2100 | 193 |
| CNC1CCN(c2ccc(Nc3ncc4ccn(-c5ccc(F)c(NS(=O)(=O)C(C)(C)C)c5)c4n3)cc2F)CC1 [drawing 457] | 150 | 88 | 420 |  | 302 | 52 | 9900 | 608 |
| CC(C)(C)S(=O)(=O)Nc1cccc(-n2ccc3cnc(Nc4ccc(C(=O)N5CCNCC5)c(F)c4)nc32)c1 [drawing 463] | 82 | 54 | 369 | 123 | 194 | 28 | 587 | 334 |
| Cc1cnc(Nc2ccc(OCCN3CCCC3)cc2)nc1Nc1cccc(NS(=O)(=O)C(C)(C)C)c1 | 420 | 451 | 682 | 853 | 638 | 2.3 |  | 185 |
| CN1CCN(c2ccc(Nc3ncc4ccn(-c5cccc(NS(=O)(=O)C(C)(C)C)c5)c4n3)cc2)CC1 [drawing 260] | 220 | 175 | 700 | 270 | 696 |  | 243 | 127 |
| CNC1CCN(c2ccc(Nc3ncc4ccn(-c5ccc(F)c(NS(=O)(=O)C(C)(C)C)c5)c4n3)cc2F)CC1 [drawing 456] | 123 | 86 | 360 | 97 | 185 | 39 | 1500 | 173 |
| COc1cc(Nc2ncc3ccn(-c4cccc(NS(=O)(=O)C(C)(C)C)c4)c3n2)ccc1N1CCN(C)CC1 | 431 | 130 | 743 | 161 | 363 |  | 293 | 82 |
| Cc1cnc(Nc2ccc(C(=O)NC3CCN(C)CC3)c(F)c2)nc1Nc1ccc2c(c1)N(S(=O)(=O)C(C)(C)C)CC2 | 87 | 30 | 157 | 92 | 131 | 24 | 1010 |  |
| Cc1cnc(Nc2ccc(N3CCN(C)CC3)c(F)c2)nc1Nc1ccc2c(c1)N(S(=O)(=O)C(C)(C)C)CC2 [drawing 246] | 93.4 | 112 | 254 | 183 | 228 |  |  | 313 |
